The values below come from US10106526B2, “Inhibitors of cyclin-dependent kinase 7 (CDK7)” (SYROS PHARMACEUTICALS, INC., priority 2014, dated 2018).

Structures are written as SMILES. pIC50: −log10 of the molar value.

One test deals with A673 cells. The experiment in a line: Inhibition of proliferation of A673 cells (CyQUANT, 72 hour). It is filed as cell-based, human. The following applies: 72 hour proliferation. The method, then:
A673 cells are a cell line derived from human muscle Ewing's sarcoma. Representative compounds of the invention were tested at different concentrations (from 4 μM to 126.4 pM; 0.5 log serial dilutions) for their ability to inhibit the proliferation of A673 cells. Known CDK inhibitors flavopiridol and triptolide were used as positive controls. Cells were grown in Dulbecco's Modified Eagle's Medium, +10% FBS+1 mM Sodium Pyruvate. The cells were cultured at 37° C. in a humidified chamber in the presence of 5% CO2. Proliferation assays were conducted over a 72 hour time period. CyQUANT® (Life Technologies, Chicago, Ill. USA) was used to assess the anti-proliferative effects of the compounds following manufacturer's directions and utilizing the reagents supplied with the CyQUANT® kit. In this table, “A” represents an IC50 of less than 500 nM; “B” an IC50 of between 500 nM and 5 μM; and “C” an IC50 of greater than 5 μM.

Test [1] deals with CDK7/Cyclin H/MAT1 trimeric complex (Homo sapiens, UniProt P50613). Nature of the test: CDK7 kinase assay, Caliper/LabChip EZ Reader (Biortus Biosciences). It is filed as biochemical. The following applies: CDK7/Cyclin H/MAT1 10 nM, ATP 2 mM, FAM-CDK7tide 2 μM, 30 min incubation, read-out: CDK7 Inhibition (IC50). As to the method: Compounds of the invention were further assayed for CDK7 activity at Biortus Biosciences (Jiangyin, Jiangsu Province, P.R. of China) using a CDK7 kinase assay developed with a Caliper/LabChip EZ Reader (Perkin Elmer, Waltham, Mass.). […] The incubation period was chosen such that the total fraction of phosphorylated peptide product produced was <20% for the uninhibited kinase.

Usually pIC50 stands for the negative decadic logarithm of the IC50, by convention in mol/L.

Chain of CDK7/Cyclin H/MAT1 trimeric complex (P50613 whole entry): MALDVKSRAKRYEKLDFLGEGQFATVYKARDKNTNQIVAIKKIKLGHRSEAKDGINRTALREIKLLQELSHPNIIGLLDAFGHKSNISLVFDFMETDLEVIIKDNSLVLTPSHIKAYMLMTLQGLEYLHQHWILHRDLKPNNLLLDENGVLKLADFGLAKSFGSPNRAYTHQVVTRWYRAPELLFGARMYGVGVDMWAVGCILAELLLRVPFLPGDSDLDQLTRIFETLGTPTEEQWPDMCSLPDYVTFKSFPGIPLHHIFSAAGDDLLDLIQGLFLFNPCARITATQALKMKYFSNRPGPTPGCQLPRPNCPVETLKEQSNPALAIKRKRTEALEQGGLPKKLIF
Chain of CDK7/Cyclin H/MAT1 trimeric complex (P51946 whole entry partner): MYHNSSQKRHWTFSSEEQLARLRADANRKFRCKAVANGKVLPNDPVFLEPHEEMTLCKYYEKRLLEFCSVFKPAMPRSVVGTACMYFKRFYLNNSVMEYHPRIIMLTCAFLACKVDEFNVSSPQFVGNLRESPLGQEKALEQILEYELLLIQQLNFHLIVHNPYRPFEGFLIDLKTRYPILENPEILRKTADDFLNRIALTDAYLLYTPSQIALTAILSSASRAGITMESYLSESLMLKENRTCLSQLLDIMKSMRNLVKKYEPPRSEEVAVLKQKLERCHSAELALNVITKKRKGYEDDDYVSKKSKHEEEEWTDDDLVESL
Chain of CDK7/Cyclin H/MAT1 trimeric complex (P51948 whole entry partner): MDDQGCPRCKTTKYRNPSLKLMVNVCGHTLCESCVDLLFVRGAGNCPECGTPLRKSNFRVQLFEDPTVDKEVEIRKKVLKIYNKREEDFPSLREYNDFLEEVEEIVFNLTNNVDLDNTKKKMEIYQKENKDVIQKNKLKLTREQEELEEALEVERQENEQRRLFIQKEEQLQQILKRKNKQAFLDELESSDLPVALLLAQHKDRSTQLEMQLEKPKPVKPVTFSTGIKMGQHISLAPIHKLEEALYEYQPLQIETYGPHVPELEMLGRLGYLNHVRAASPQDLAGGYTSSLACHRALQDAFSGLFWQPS

As for `CN(C)C/C=C/C(=O)Nc1ccc(CN[C@H]2CCC[C@@H](Nc3ncc(Cl)c(-c4c[nH]c5ccccc45)n3)C2)nc1` [Compound 261], the negative logarithm of the IC50 (pIC50) in the test with A673 cells (Homo sapiens) was more than 6.30; in test [1] it was more than 7.00.

Take `CCc1cnc(N[C@@H]2CCC[C@H](NC(=O)c3ccc(NC(=O)/C=C/CN(C)C)cn3)C2)nc1-c1c[nH]c2ccccc12` [Compound 262, 5-[[(E)-4-(dimethylamino)but-2-enoyl]amino]-N-[(1S,3R)-3-[[5-ethyl-4-(1H-indol-3-yl)pyrimidin-2-yl]amino]cyclohexyl]pyridine-2-carboxamide]: the pIC50 in the test with A673 cells (Homo sapiens) was more than 6.30; in test [1], more than 7.00.

On to `CN(C)C/C=C/C(=O)Nc1ccc(C(=O)N[C@H]2CCC[C@@H](Nc3ncc(Cl)c(-c4cccc5[nH]ccc45)n3)C2)nc1` [Compound 264, N-((1S,3R)-3-((5-chloro-4-(1H-indol-4-yl)pyrimidin-2-yl)amino)cyclohexyl)-5-((E)-4-(dimethylamino)but-2-enamido)picolinamide], for which the pIC50 is more than 6.30 with A673 cells (Homo sapiens) and more than 7.00 in test [1].

As for `Cc1cnc(N[C@@H]2CCC[C@H](NC(=O)c3ccc(NC(=O)/C=C/CN(C)C)cn3)C2)nc1-c1c[nH]c2ccccc12` [Compound 265, N-((1S,3R)-3-((4-(1H-indol-3-yl)-5-methylpyrimidin-2-yl)amino)cyclohexyl)-5-((E)-4-(dimethylamino)but-2-enamido)picolinamide], the negative-log IC50 (pIC50) in the test on A673 cells (Homo sapiens) is more than 6.30; in test [1], more than 7.00.

On to `CN(C)C/C=C/C(=O)Nc1ccc(C(=O)N[C@@]2(C)CCC[C@@H](Nc3ncc(Cl)c(-c4c[nH]c5ccccc45)n3)C2)nc1` [Compound 267, N-((1S,3R)-3-(5-chloro-4-(1H-indol-3-yl)pyrimidin-2-ylamino)-1-methylcyclohexyl)-5-((E)-4-(dimethylamino)but-2-enamido)picolinamide], for which the figures for the negative logarithm of the IC50 (pIC50) (with A673 cells (Homo sapiens); in test [1]) were more than 6.30 and more than 7.00, respectively.

Consider `C=CC(=O)N1CCC(CNC2(C)CCCC(Nc3ncc(Cl)c(-c4c[nH]c5ccccc45)n3)C2)CC1` (centres unmarked) [Compound 268], for which the negative-log IC50 (pIC50) is more than 6.30 in the test on A673 cells and more than 7.00 in test [1].

Regarding `CN(C)C/C=C/C(=O)Nc1ccc(C(=O)N[C@H]2CCC[C@@H](Nc3ncc(Cl)c(-c4cccc5c4ccn5C)n3)C2)nc1` [Compound 269, N-((1S,3R)-3-((5-chloro-4-(1-methyl-1H-indol-4-yl)pyrimidin-2-yl)amino)cyclohexyl)-5-((E)-4-(dimethylamino)but-2-enamido)picolinamide], the pIC50 is more than 6.30 in the test with A673 cells (Homo sapiens) and more than 7.00 in test [1].

Take `CN(C)C/C=C/C(=O)Nc1ccc(C(=O)N[C@H]2CCC[C@@H](Nc3ncc(Cl)c(C4C(=O)Nc5ccccc54)n3)C2)nc1` (stereo partly drawn) [Compound 282, N-((1S,3R)-3-(5-Chloro-4-(2-oxoindolin-3-yl)pyrimidin-2-ylamino)cyclohexyl)-5-((E)-4-(dimethylamino)but-2-enamido)picolinamide]: the pIC50 in the test with A673 cells (Homo sapiens) is more than 6.30; in test [1] it was 6.00 to 7.00.

As to `CN(C)C/C=C/C(=O)N1CCN([C@H]2CCC[C@@H](Nc3ncc(Cl)c(C4C(=O)Nc5ccccc54)n3)C2)CC1` (stereo partly drawn) [Compound 293, 3-(5-chloro-2-(((1R,3S)-3-(4-((E)-4-(dimethylamino)but-2-enoyl)piperazin-1-yl)cyclohexyl)amino)pyrimidin-4-yl)indolin-2-One], the negative logarithm of the IC50 (pIC50) is more than 6.30 in the test on A673 cells (Homo sapiens) and 6.00 to 7.00 in test [1].

For `CN(C)C/C=C/C(=O)Nc1ccc(CN[C@@]2(C)CCC[C@@H](Nc3ncc(Cl)c(-c4c[nH]c5ccccc45)n3)C2)nc1` [Compound 294, (E)-N-(6-(((1S,3R)-3-(5-chloro-4-(1H-indol-3-yl)pyrimidin-2-ylamino)-1-methylcyclohexylamino)methyl)pyridin-3-yl)-4-(dimethylamino)but-2-enamide], the figures for the negative logarithm of the IC50 (pIC50) (in the test on A673 cells (Homo sapiens); in test [1]) were more than 6.30 and more than 7.00, respectively.
